Data on eight compounds can be found in PubChem BioAssay (NCI).

Where “and” joins values, the source holds several entries; their conditions need not be identical. Equal values may be shown once.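 Protocol summary: plate cells (96-well), add compound at 5 concentrations, incubate 48 h, interpolate endpoints linearly. GI50 = concentration required for 50% inhibition of growth. TGI: total growth inhibition.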

Test systems include TK-10 renal; OVCAR-8 ovarian; KM12 colon; T-47D breast; SF-268 CNS; A498 renal; HT29 colon; UACC-62 melanoma; OVCAR-4 ovarian; U251 CNS.
Test in all cases: DTP human tumour cell line panel, 48 h

The term GI50 denotes the concentration that inhibits growth by half. By TGI is commonly meant the concentration giving total growth inhibition. On to `Nc1n[nH]c2ccc([C@@H]3Nc4cc5[nH]ncc5cc4[C@H]4C5CCC(C5)[C@@H]34)cc12` (stereo not given in full), for which the GI50 in the test with TK-10 renal was 17.2 µM; in the test on OVCAR-8 ovarian, 0.511 µM; in the test on KM12 colon, 0.393 µM; in the test on T-47D breast, 0.498 µM; in the test on SF-268 CNS, 1.71 µM; with A498 renal, 0.174 µM. For the same compound, the GI50 in the test on HT29 colon is 0.367 µM; in the test on UACC-62 melanoma, 0.272 µM; in the test with OVCAR-4 ovarian it was 9.3 µM; with U251 CNS it was 0.43 µM. Also, the TGI in the test with TK-10 renal was more than 95.9 µM; in the test with OVCAR-8 ovarian it was more than 100 µM; in the test on KM12 colon, 19.1 µM; in the test on T-47D breast, 79.8 µM; in the test with SF-268 CNS, more than 100 µM; in the test on A498 renal, 0.822 µM. For the same compound, the TGI is more than 44.3 µM in the test on HT29 colon, 17.4 µM in the test with UACC-62 melanoma, more than 100 µM with OVCAR-4 ovarian and more than 58 µM in the test on U251 CNS.

For the compound `O=C1c2ccccc2C(=O)N1C1(C(=O)NC2(C(=O)O)CCCC2)CCCC1`, the TGI in the test on TK-10 renal, in the test on OVCAR-8 ovarian, with KM12 colon, with T-47D breast, with SF-268 CNS and with A498 renal was more than 100 µM throughout. In addition, the TGI with HT29 colon, with UACC-62 melanoma, in the test with OVCAR-4 ovarian and in the test on U251 CNS was more than 100 µM in each case.

Regarding `CC(=O)O.CC(=O)O.CC(=O)O.CC(=O)O.[Rh].[Rh]`, the GI50 is 18.3 µM in the test with TK-10 renal; 27.6 µM with OVCAR-8 ovarian; 34.8 µM with KM12 colon; 14.9 µM in the test with T-47D breast; 33.2 µM in the test on SF-268 CNS; 18.8 µM with A498 renal. Besides, the GI50 with HT29 colon was 21.2 µM; in the test with UACC-62 melanoma, 24.3 µM; in the test with OVCAR-4 ovarian, 37 µM; in the test with U251 CNS, 25.2 µM. For the same compound, the TGI was 56.4 µM with TK-10 renal; more than 100 µM in the test with OVCAR-8 ovarian; more than 100 µM in the test with KM12 colon; more than 100 µM in the test on T-47D breast; more than 100 µM in the test on SF-268 CNS; 37.2 µM in the test with A498 renal. The TGI with HT29 colon is 53.6 µM; in the test on UACC-62 melanoma, 56.5 µM; with OVCAR-4 ovarian, more than 100 µM; in the test on U251 CNS, 75.3 µM.

Turning to `O=C1CSC(c2ccccc2O)N1c1nnc(Cn2ccnc2)o1` (stereo not given), the GI50 is 14.1 µM in the test on TK-10 renal; 17.8 µM in the test with OVCAR-8 ovarian; 5.16 µM with KM12 colon; 6.11 µM with T-47D breast; 10.8 µM in the test on SF-268 CNS; 21 µM in the test with A498 renal. Besides, the GI50 in the test on HT29 colon is 5 µM; in the test with UACC-62 melanoma it was 11.5 µM; with OVCAR-4 ovarian it was 4.51 µM; with U251 CNS it was 11.7 µM. Besides, the TGI in the test on TK-10 renal is more than 100 µM; in the test with OVCAR-8 ovarian, more than 100 µM; with KM12 colon, more than 100 µM; in the test on T-47D breast, 27.2 µM; in the test with SF-268 CNS, 48 µM; in the test with A498 renal, 46 µM. Further, the TGI in the test on HT29 colon is more than 100 µM; in the test with UACC-62 melanoma it was 26 µM; with OVCAR-4 ovarian, 37.2 µM; in the test with U251 CNS, 63.6 µM.

In the case of `CCN(CC)C(=S)SSC(=S)N(CC)CC`, the GI50 in the test with TK-10 renal was 21.9 µM and 34.2 µM; in the test on OVCAR-8 ovarian, 18.8 µM and 15.8 µM; with KM12 colon it was 14.4 µM and 13.7 µM; in the test on T-47D breast, 15.7 µM and 13 µM; in the test with SF-268 CNS, 22 µM and 18.6 µM; with A498 renal it was 49.9 µM and 109 µM. For the same compound, the GI50 was 16.5 µM and 16.8 µM with HT29 colon; 15.2 µM and 18.1 µM with UACC-62 melanoma; 13.5 µM and 13 µM in the test on OVCAR-4 ovarian; 15.8 µM and 13.7 µM with U251 CNS. Also, the TGI in the test with TK-10 renal was 43.4 µM and 99.7 µM; with OVCAR-8 ovarian, 50.7 µM and 33.5 µM; in the test with KM12 colon it was 30.7 µM and 28.2 µM; with T-47D breast, 51.3 µM and 39.3 µM; in the test with SF-268 CNS it was > 58 µM and 42.6 µM; with A498 renal, 228 µM. In addition, the TGI is 31.5 µM and 35.5 µM in the test on HT29 colon; 30.4 µM and 44.5 µM with UACC-62 melanoma; 28.9 µM and 26.4 µM in the test on OVCAR-4 ovarian; 31 µM and 30.7 µM with U251 CNS.

In the case of `C=C1CC[C@@H]2[C@](C)(COC(C)=O)[C@H](OC(C)=O)CC[C@@]2(C)[C@@H]1CC(Nc1ccc(S(=O)(=O)Nc2nccs2)cc1)C1=CCOC1=O` (stereo not given in full), the GI50 with TK-10 renal was 9.45 µM; with OVCAR-8 ovarian, 3.14 µM; in the test on KM12 colon, 7.58 µM; in the test on T-47D breast, 3.39 µM; in the test on SF-268 CNS, 11.3 µM; with A498 renal, 18.2 µM. Also, the GI50 was 2.17 µM in the test with HT29 colon, 1.76 µM in the test with UACC-62 melanoma, 4.53 µM with OVCAR-4 ovarian and 1.86 µM with U251 CNS. For the same compound, the TGI is 21.2 µM in the test on TK-10 renal; 10.8 µM with OVCAR-8 ovarian; 21.7 µM with KM12 colon; 20.8 µM in the test on T-47D breast; 25.9 µM in the test with SF-268 CNS; 32.6 µM in the test on A498 renal. Moreover, the TGI stood at 4.7 µM in the test with HT29 colon, 4.42 µM with UACC-62 melanoma, 17.7 µM in the test on OVCAR-4 ovarian and 3.5 µM with U251 CNS.

In the case of `COc1cc(/C=C/[N+](=O)[O-])cc(OC)c1OC`, the GI50 was 2.49 µM in the test with TK-10 renal; 3.04 µM in the test with OVCAR-8 ovarian; 3.68 µM in the test on KM12 colon; 2 µM in the test on T-47D breast; 4.39 µM in the test with SF-268 CNS; 3.31 µM in the test on A498 renal. Also, the GI50 in the test on HT29 colon is 2.2 µM; in the test with UACC-62 melanoma, 1.72 µM; with OVCAR-4 ovarian, 3.22 µM; with U251 CNS, 2.86 µM. In addition, the TGI is 6.07 µM in the test with TK-10 renal; 12.1 µM in the test on OVCAR-8 ovarian; 12.3 µM in the test with KM12 colon; 9.6 µM with T-47D breast; 15.2 µM in the test with SF-268 CNS; 14.6 µM with A498 renal. The TGI with HT29 colon came to 4.81 µM; with UACC-62 melanoma it was 3.49 µM; in the test with OVCAR-4 ovarian, 11.5 µM; in the test on U251 CNS it was 10.9 µM.

In the case of `O=c1c(O)cccn1CCCN(CCCn1cccc(O)c1=O)CCn1cccc(O)c1=O`, the GI50 in the test on TK-10 renal was 7.92 µM; with OVCAR-8 ovarian, 2.26 µM; in the test with KM12 colon it was 3.12 µM; in the test with T-47D breast it was 5.64 µM; in the test with SF-268 CNS, 1.9 µM; in the test with A498 renal, 22.9 µM. In addition, the GI50 with HT29 colon was 29.5 µM; with UACC-62 melanoma it was 2.14 µM; in the test on OVCAR-4 ovarian, 3.95 µM; in the test on U251 CNS, 1.84 µM. The TGI in the test with TK-10 renal, in the test with OVCAR-8 ovarian, in the test with KM12 colon, with T-47D breast, in the test with SF-268 CNS and in the test with A498 renal was more than 100 µM in each case. Further, the TGI in the test on HT29 colon is more than 100 µM; in the test with UACC-62 melanoma, 76 µM; in the test with OVCAR-4 ovarian it was more than 100 µM; in the test with U251 CNS it was more than 100 µM.
